Counter-ions that a name gives are not always drawn. Like-named read-outs stand apart in the source and are kept apart here.
What was measured:
[1] = system: Cullin-3 (CUL3) neddylation; experiment: AlphaLISA assay for Cullin-3 (CUL3) neddylation in TF 1 cells; assay type: cell-based; conditions: Homo sapiens, TF-1, 3 h, 3 hours treatment
Outline: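 TF 1 cells in unsupplemented IMDM treated with compound concentrations for 3 h, then lysed. CUL3 neddylation detected by AlphaLISA (biotinylated anti-NEDD8, anti-CUL3 acceptor beads overnight, streptavidin donor beads 1 h); normalized to vehicle (0%) and 1 μM DI-1548 (100%), IC50 from Hill fits.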

[2] = biological target: DCN1 (DCUND1) protein PONY domain (Homo sapiens (Human), UniProt Q96GG9); experiment: TR-FRET assay, DCN1 binding with FAM-labeled probe
Outline: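 First, the E. coli-derived PONY domain was biotinylated and paired with streptavidin Tb cryptate. Compounds in 0.1% DMSO were then added to DCN1 and FAM-probe (5 nM/20 nM, or 0.31 nM/900 nM total with 800 nM unlabelled) in TritonX, 200 mM NaCl buffer. Finally, TR-FRET ratios were recorded at 1, 5 and 24 hrs.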

[3] = 24 hr after treatment with compound, read-out: TR FRET IC50 24 hr
[4] = TR FRET IC50 1 hr (nM), 1 hr after treatment with compound
[5] = read-out: TR FRET IC50 1 hr, 1 hr after treatment with compound

DCN1 (DCUND1) protein PONY domain, sequence (Q96GG9 60-248): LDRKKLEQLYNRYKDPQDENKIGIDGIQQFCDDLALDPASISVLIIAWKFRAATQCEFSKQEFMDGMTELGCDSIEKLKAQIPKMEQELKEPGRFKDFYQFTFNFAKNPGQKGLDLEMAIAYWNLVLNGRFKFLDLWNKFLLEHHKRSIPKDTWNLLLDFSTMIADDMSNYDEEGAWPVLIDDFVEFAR

Row | Structure (SMILES) | IC50 [1] [µM] | IC50 [2, 3] [nM] | IC50 [2, 4] [nM] | IC50 [2, 5] [nM]
1 | CCN1C(=O)[C@@H](NC(=O)c2ccc3cn[nH]c3c2)[C@@H](C2CC2)c2c(C(=O)N3[C@H](C#N)C[C@H]4C[C@H]43)nn(C3CCOCC3)c21 [Compound I-563] | > 1 | 1000 to 3000 | 1000 to 3000 | –
2 | CCN1C(=O)[C@@H](NC(=O)c2ccc3ncoc3c2)[C@@H](C2CC2)c2c(C(=O)N3[C@H](C#N)C[C@H]4C[C@H]43)nn(C3CCOCC3)c21 [Compound I-564] | > 1 | 1000 to 3000 | 1000 to 3000 | –
3 | CCN1C(=O)[C@@H](NC(=O)c2cccc3ncoc23)[C@@H](C2CC2)c2c(C(=O)N3[C@H](C#N)C[C@H]4C[C@H]43)nn(C3CCOCC3)c21 [Compound I-565] | ≤ 0.1 | ≤ 200 | 200 to 1000 | –
4 | CCN1C(=O)[C@@H](NC(=O)[C@H]2C[C@@H]3CCCC[C@@H]3N2)[C@@H](C2CC2)c2c(C(=O)N3[C@H](C#N)C[C@H]4C[C@H]43)nn(C3CCOCC3)c21 [Compound I-566] | > 1 | 1000 to 3000 | 1000 to 3000 | –
5 | CCCn1nc(C(=O)N(C)C(C)C#N)c2c1N(CC)C(=O)[C@@H](NC(=O)c1cccc(C(F)(F)F)c1)[C@H]2C1CC1 (stereo partly drawn) [Compound I-569] | ≤ 0.1 | ≤ 200 | 200 to 1000 | –
6 | CCN1C(=O)[C@@H](NC(=O)c2cccc(C(F)(F)F)c2)[C@@H](c2ccc(F)cc2)c2c(C(=O)N3CC[C@@H]3C#N)nn(-c3ccccc3)c21 [Compound I-570] | 0.1 to 1 | 200 to 1000 | 1000 to 3000 | –
7 | CCCn1nc(C(=O)N2CCC[C@H]2C#N)c2c1N(CC)C(=O)[C@H](NC(=O)c1cccc(C(F)(F)F)c1)[C@@H]2C1CC1 [Compound I-571] | > 1 | 1000 to 3000 | 1000 to 3000 | –
8 | CCCn1nc(C(=O)N(CC#N)C2CC2)c2c1N(CC)C(=O)[C@H](NC(=O)c1cccc(C(F)(F)F)c1)[C@@H]2c1ccc(F)cc1 [Compound I-572] | > 1 | 1000 to 3000 | 1000 to 3000 | –
9 | CCN1C(=O)[C@@H](NC(=O)c2cccc(C(F)(F)F)c2)[C@@H](c2ccc(F)cc2)c2c(CN(C#N)CCCN3CC4(COC4)C3)nn(-c3ccccc3)c21 [Compound I-577] | > 1 | 200 to 1000 | 200 to 1000 | –
10 | CCN1C(=O)[C@@H](NC(=O)c2cccc(C(F)(F)F)c2)[C@@H](c2ccc(F)cc2)c2c([C@@H](C)N(C#N)CCCN(C)C)nn(-c3ccccc3)c21 [Compound I-578, N-((4S,5S)-3-((R)-1-(N-(3-(dimethylamino)propyl)cyanamido)ethyl)-7-ethyl-4-(4-fluorophenyl)-6-oxo-1-phenyl-4,5,6,7-tetrahydro-1H-pyrazolo[3,4-b]pyridin-5-yl)-3-(trifluoromethyl)benzamide] | 0.1 to 1 | 1000 to 3000 | 1000 to 3000 | –
11 | CCN1C(=O)[C@@H](NC(=O)c2cccc(C(F)(F)F)c2)[C@@H](c2ccc(F)cc2)c2c(CN(C#N)CCCN3CCC4(CC3)COC4)nn(-c3ccccc3)c21 [Compound I-579] | ≤ 0.1 | ≤ 200 | – | ≤ 200
12 | CCN1C(=O)[C@H](NC(=O)c2cccc(C(F)(F)F)c2)[C@H](c2ccc(F)cc2)c2c(C(=O)N3CCC[C@H]3C#N)nn(-c3cccc(OCCCN4CCC5(CC4)COC5)c3)c21 [Compound I-581] | > 1 | 200 to 1000 | 1000 to 3000 | –
13 | CCN1C(=O)[C@H](NC(=O)c2cccc(C(F)(F)F)c2)[C@H](c2ccc(F)cc2)c2c(C(=O)N3CCC[C@H]3C#N)nn(-c3cccc(OCCN(C)C4COC4)c3)c21 [Compound I-584] | > 1 | 1000 to 3000 | 1000 to 3000 | –
14 | CCN1C(=O)[C@@H](NC(=O)c2nc(C(F)(F)F)cs2)[C@@H](c2ccc(F)cc2)c2c(C(=O)N3CCC[C@H]3C#N)nn(C3CCOCC3)c21 [Compound I-586] | ≤ 0.1 | 200 to 1000 | 1000 to 3000 | –
15 | CCN1C(=O)[C@@H](NC(=O)c2cccc(C(F)(F)F)c2)[C@@H](C2CC2)c2c(C(=O)N(C)[C@H](C#N)CCN(C)C)nn(C3CCOCC3)c21 [Compound I-589] | ≤ 0.1 | ≤ 200 | – | ≤ 200
16 | CCN1C(=O)[C@@H](NC(=O)c2cccc(C(F)(F)F)c2)[C@@H](C2CCC2)c2c(C(=O)N3[C@H](C#N)C[C@H]4C[C@H]43)nn(C3CCOCC3)c21 [Compound I-593] | ≤ 0.1 | ≤ 200 | – | ≤ 200

Row | Structure (SMILES) | IC50 [1] [µM] | IC50 [2, 3] [nM] | IC50 [2, 4] [nM] | IC50 [2, 5] [nM]
17 | C#C[C@@H]1CCCN1C(=O)c1nn(C2CCOCC2)c2c1[C@H](C1CC1)[C@H](NC(=O)c1cccc(C(F)(F)F)c1)C(=O)N2CC [Compound I-594] | > 1 | 1000 to 3000 | 1000 to 3000 | –
18 | CCN1C(=O)[C@@H](NC(=O)Cc2ccccc2)[C@@H](C2CC2)c2c(C(=O)N3[C@H](C#N)C[C@H]4C[C@H]43)nn(C3CCOCC3)c21 [Compound I-595] | > 1 | 1000 to 3000 | 1000 to 3000 | –
19 | CCN1C(=O)[C@H](NC(=O)c2cccc(C(F)(F)F)c2)[C@@H](c2ccc(F)cc2)c2c(CN3C(=O)CC[C@H]3C#N)nn(-c3ccccc3)c21 [Compound I-596, N-((4S,5R)-3-(((S)-2-cyano-5-oxopyrrolidin-1-yl)methyl)-7-ethyl-4-(4-fluorophenyl)-6-oxo-1-phenyl-4,5,6,7-tetrahydro-1H-pyrazolo[3,4-b]pyridin-5-yl)-3-(trifluoromethyl)benzamide] | > 1 | 1000 to 3000 | 1000 to 3000 | –
20 | CCN1C(=O)[C@H](NC(=O)c2cccc(C(F)(F)F)c2)[C@H](c2ccc(F)cc2)c2c([C@@H](C)NC#N)nn(C3CCOCC3)c21 [Compound I-597] | > 1 | 1000 to 3000 | 1000 to 3000 | –
21 | CCN1C(=O)[C@H](NC(=O)c2cccc(C(F)(F)F)c2)[C@H](C)c2c(C(=O)N3[C@H](C#N)C[C@H]4C[C@H]43)nn(C3CCOCC3)c21 [Compound I-599] | 0.1 to 1 | 1000 to 3000 | 1000 to 3000 | –
22 | CCN1C(=O)[C@@H](NC(=O)c2ccc3c(c2)COC3)[C@@H](C2CC2)c2c(C(=O)N3[C@H](C#N)C[C@H]4C[C@H]43)nn(C3CCOCC3)c21 [Compound I-600] | ≤ 0.1 | ≤ 200 | 200 to 1000 | –
23 | CCN1C(=O)[C@@H](NC(=O)c2ccc3ocnc3c2)[C@@H](C2CC2)c2c(C(=O)N3[C@H](C#N)C[C@H]4C[C@H]43)nn(C3CCOCC3)c21 [Compound I-601] | 0.1 to 1 | 200 to 1000 | 1000 to 3000 | –
24 | CCN1C(=O)[C@@H](NC(=O)c2cccc3[nH]ncc23)[C@@H](C2CC2)c2c(C(=O)N3[C@H](C#N)C[C@H]4C[C@H]43)nn(C3CCOCC3)c21 [Compound I-602] | > 1 | 1000 to 3000 | 1000 to 3000 | –
25 | CCN1C(=O)[C@@H](NC(=O)c2cccc(C(F)(F)F)c2)[C@@H](c2ccc(F)cc2)c2c(CN(C)C/C=C/C(=O)OC(C)(C)C)nn(-c3ccccc3)c21 [Compound I-604, tert-butyl (E)-4-((((4S,5S)-7-ethyl-4-(4-fluorophenyl)-6-oxo-1-phenyl-5-(3-(trifluoromethyl)benzamido)-4,5,6,7-tetrahydro-1H-pyrazolo[3,4-b]pyridin-3-yl)methyl)(methyl)amino)but-2-enoate] | > 1 | 1000 to 3000 | 1000 to 3000 | –
26 | C=CC(=O)N[C@H](C)c1nn(-c2ccccc2)c2c1[C@H](c1ccc(F)cc1)[C@@H](NC(=O)c1nccc(C(F)(F)F)n1)C(=O)N2CC [Compound I-605] | > 1 | 1000 to 3000 | 1000 to 3000 | –
27 | CCN1C(=O)[C@@H](NC(=O)c2cccc(C(F)(F)F)c2)[C@@H](c2ccc(F)cc2)c2c(CN(C)C/C=C/C(=O)N3CCCC3)nn(-c3ccccc3)c21 [Compound I-606] | > 1 | 200 to 1000 | 200 to 1000 | –
28 | CCN1C(=O)[C@@](CO)(NC(=O)c2cccc(C(F)(F)F)c2)[C@@H](c2ccc(F)cc2)c2c([C@@H](C)NC#N)nn(-c3ccccc3)c21 [Compound I-608] | > 1 | ≤ 200 | 1000 to 3000 | –
29 | CCN1C(=O)[C@H](NC(=O)c2cccc(C(F)(F)F)c2)[C@@H](c2ccc(F)cc2)c2c([C@@H](C)N(C#N)CCCN(C)C)nn(-c3ccccc3)c21 [Compound I-609, N-((4S,5R)-3-((R)-1-(N-(3-(dimethylamino)propyl)cyanamido)ethyl)-7-ethyl-4-(4-fluorophenyl)-6-oxo-1-phenyl-4,5,6,7-tetrahydro-1H-pyrazolo[3,4-b]pyridin-5-yl)-3-(trifluoromethyl)benzamide formate] | > 1 | ≤ 200 | – | ≤ 200
30 | CCN1C(=O)[C@H](NC(=O)c2cccc(C(F)(F)F)c2)[C@H](c2ccc(F)cc2)c2c(C(=O)N3CCC[C@H]3C#N)nn(-c3ccccc3)c21 [Compound I-611] | > 1 | 1000 to 3000 | 1000 to 3000 | –
31 | CCN1C(=O)[C@@H](NC(=O)c2cccc(C(F)(F)F)c2)[C@@H](c2ccc(F)cc2)c2c(CN(C#N)CCCN3CCN(C4COC4)CC3)nn(-c3ccccc3)c21 [Compound I-614] | ≤ 0.1 | ≤ 200 | 200 to 1000 | –
32 | CCN1C(=O)[C@H](NC(=O)c2cccc(C(F)(F)F)c2)[C@H](c2ccc(F)cc2)c2c(C(=O)N3CCC[C@H]3C#N)nn(-c3cccc(OCCN4CCC5(CC4)COC5)c3)c21 [Compound I-616] | > 1 | 1000 to 3000 | 1000 to 3000 | –

Reference: patent US20250163057A1, “DCN-1 MODULATING COMPOUNDS AND METHODS OF USE THEREOF” (Cellarity, Inc., priority 2023, published 2025)
